Consider 9 molecules from patent US6107068A, “Coenzyme A disulfide reductase, and inhibitors thereof useful as antimicrobial agents” (The University of British Columbia, priority 1997, dated 2000).

Series [1] deals with S. aureus coenzyme A disulfide reductase (Staphylococcus aureus, UniProt O52582). Briefly: Steady state kinetic analysis of NADPH oxidation by disulfide substrates catalyzed by purified CoADR (340 nm).
Procedure: (§1) DTNB assays were performed in Tris-HCl (20 mM), pH 8.0, containing EDTA (1 mM) (TE buffer), and were monitored at 412 nm for the nitrobenzothiolate anion (e^412 =15,600 M^-1 cm^-1 (Ellman (1959) Arch. Biochem. Biophys. 82:70-77)). […] For kinetic analysis of purified CoADR activity, the oxidation of NADPH was measured as the decrease in absorbance at 340 nm (De^340 =6,220 M^-1 cm^-1), and was carried out in Tris-HCl (50 mM), pH 7.8, containing NaCl (50 mM).
(§2) The specificity of CoADR for these substrates and various other biological disulfides were quantitated kinetically. Kinetic measurements were performed in a 1 cm path-length quartz cuvette maintained at 37° C. […] Enzyme and NADPH were combined in buffer and equilibrated to 37° C., and the reaction was initialized by the addition of the disulfide substrate. The activity of CoADR was monitored at 340 nm as the decrease in absorbance resulting from the oxidation of NADPH. All kinetic measurements were recorded in the linear range, and at least seven substrate concentrations were used for each analysis. Kinetic constants were calculated from a linear least squares fit of the initial velocity data to the Michaelis-Menton equation using the program HyperO.
The conditions of series [2]: background statement, Newton et al. (1996); cited from earlier work.
A short description of series [3]: Cu2+ catalyzed oxidation of thiols (remaining thiol by DTNB). It is filed as physicochemical. The settings on record: thiol 1 mM, CuCl2 1 mM, Tris-HCl pH 7.5, ambient temperature. On the procedure:
To determine the relative stability of CoA to heavy metal-catalyzed oxidation, the rate of Cu^2+ catalyzed oxidation of cysteine, GSH, and CoA were compared. Each sample (2 ml) of thiol (1 mM) in Tris-HCl buffer (20 mM), pH 7.5, containing CuCl2 (1 mM) was incubated at ambient temperature. Thiol determination was then carried out at various times by adding aliquots ([…]) from each sample to a solution ([…]) of DTNB (1 mM) in Tris-HCl buffer (20 mM), pH 8.0, containing EDTA (1 mM). The absorbance of these samples at 412 nm was measured and the concentration of remaining thiol determined.

Series [4] concerns the target Coenzyme A disulfide reductase (CoADR) in extracts of Staphylococcus aureus (Staphylococcus aureus, UniProt O52582). Briefly: Pyridine nucleotide and disulfide dependent reduction of DTNB by dialyzed S. aureus extracts. The series is classed as biochemical. On the procedure: Concentrations of […] (and dephosphoCoA disulfide) were measured spectrophotometrically at 340 nm (e^340 =6220 M^-1 cm^-1), 260 nm (e^260 =33,600 M^-1 cm^-1), and 450 nm (e^450 =11,000 M^-1 cm^-1), respectively. DTNB assays were performed in Tris-HCl (20 mM), pH 8.0, containing EDTA (1 mM) (TE buffer), and were monitored at 412 nm for the nitrobenzothiolate anion (e^412 =15,600 M^-1 cm^-1 (Ellman (1959) Arch. Biochem. Biophys. 82:70-77)). Protein concentrations were determined by reaction with bicinchoninic acid and copper sulfate (Deutscher (1990) in Meth. Enzymol., vol. 182. San Diego: Academic Press, Inc.). During purification, CoADR activity in crude extracts was monitored by the NADPH and CoA disulfide dependent reduction of DTNB. DTNB and all substrates were added at 0.1 mM. For kinetic analysis of purified CoADR activity, the oxidation of NADPH was measured as the decrease in absorbance at 340 nm (De^340 =6,220 M^-1 cm^-1), and was carried out in Tris-HCl (50 mM), pH 7.8, containing NaCl (50 mM).
In order to identify the enzyme responsible for maintaining CoA in its reduced form, S. aureus extracts were analyzed for a disulfide reductase specific for CoA disulfide. An overnight culture (10 ml) of R8325-4 was centrifuged (5,000×g, 10 min), resuspended in 3 ml of TE buffer containing lysostaphin (5 mg/ml), and incubated at 37° C. for 30 min until the suspension became viscous. Glass beads (1 g) and PMSF (to 1 mM) were added, the mixture was vortexed for two minutes and then centrifuged (14,000×g, 10 min) to remove the insoluble cellular debris. The resulting viscous lysate was dialyzed exhaustively (3,600 Mr cutoff) against TE buffer. The dialysate was then assayed for the pyridine nucleotide (1 mM) and CoA disulfide (1 mM) dependent reduction of DTNB (1 mM).

Series [5] concerns CC(C)(COP(=O)(O)O)[C@@H](O)C(=O)NCCC(=O)NCCSSCCNC(=O)CCNC(=O)[C@H](O)C(C)(C)COP(=O)(O)O. Briefly: purified protein, by the assay type. Conditions: other: disulfide substrate varied, NADPH maintained at 200 mM, 37° C., nd = no activity detected.
Procedure: as §1, §2
The test system of series [6] is NC(=O)C1=CN([C@@H]2O[C@H](COP(=O)(O)OP(=O)(O)OC[C@H]3O[C@@H](n4cnc5c(N)ncnc54)[C@H](OP(=O)(O)O)[C@@H]3O)[C@@H](O)[C@H]2O)C=CC1. Briefly: purified protein, by the assay type.
Procedure: as §1, §2
Series [7] deals with CC(C)(COP(=O)(O)OP(=O)(O)OC[C@H]1O[C@@H](n2cnc3c(N)ncnc32)[C@H](O)[C@@H]1O)[C@@H](O)C(=O)NCCC(=O)NCCSSCCNC(=O)CCNC(=O)[C@H](O)C(C)(C)COP(=O)(O)OP(=O)(O)OC[C@H]1O[C@@H](n2cnc3c(N)ncnc32)[C@H](O)[C@@H]1O. Description: purified protein, by the assay type. The settings on record: other: disulfide substrate varied, NADPH maintained at 200 mM, 37° C., nd = no activity detected.
Procedure: as §1, §2
The test system of series [8] is CC(C)(COP(=O)(O)OP(=O)(O)OC[C@H]1O[C@@H](n2cnc3c(N)ncnc32)[C@H](O)[C@@H]1OP(=O)(O)O)[C@@H](O)C(=O)NCCC(=O)NCCSSC[C@H](NC(=O)CC[C@H](N)C(=O)O)C(=O)NCC(=O)O. Briefly: purified protein, by the assay type. The settings on record: other: disulfide substrate varied, NADPH maintained at 200 mM, 37° C., nd = no activity detected.
Procedure: as §1, §2
The test system of series [9] is CC(C)(COP(=O)(O)OP(=O)(O)OC[C@H]1O[C@@H](n2cnc3c(N)ncnc32)[C@H](O)[C@@H]1OP(=O)(O)O)[C@@H](O)C(=O)NCCC(=O)NCCSSCCNC(=O)CCNC(=O)[C@H](O)C(C)(C)COP(=O)(O)OP(=O)(O)OC[C@H]1O[C@@H](n2cnc3c(N)ncnc32)[C@H](O)[C@@H]1OP(=O)(O)O. Briefly: purified protein, by the assay type. Conditions: other: disulfide substrate varied, NADPH maintained at 200 mM, 37° C., nd = no activity detected.
Procedure: as §1, §2

Series [10] deals with the molecule itself. Description: gel exclusion chromatography of the native enzyme (approximately 85 kD) compared with SDS-PAGE of the subunit (~50 kD).
Where [11] appears, read: other: NADPH varied, CoA disulfide maintained at 120 mM, 37° C.

Chain of Coenzyme A disulfide reductase (CoADR) in extracts of Staphylococcus aureus (O52582 2-438): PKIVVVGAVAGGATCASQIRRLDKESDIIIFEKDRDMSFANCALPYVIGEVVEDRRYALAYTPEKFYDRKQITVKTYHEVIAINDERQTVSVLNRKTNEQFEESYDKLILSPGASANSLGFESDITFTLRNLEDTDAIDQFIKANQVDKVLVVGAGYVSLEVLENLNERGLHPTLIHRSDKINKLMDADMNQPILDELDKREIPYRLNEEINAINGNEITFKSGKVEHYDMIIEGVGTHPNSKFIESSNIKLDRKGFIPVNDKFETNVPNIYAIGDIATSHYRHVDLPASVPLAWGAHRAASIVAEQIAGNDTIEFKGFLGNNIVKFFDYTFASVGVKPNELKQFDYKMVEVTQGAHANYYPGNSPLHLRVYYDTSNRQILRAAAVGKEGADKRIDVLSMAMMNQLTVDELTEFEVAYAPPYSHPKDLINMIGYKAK
Chain of S. aureus coenzyme A disulfide reductase (O52582 2-438): as above

`CC(C)(COP(=O)(O)OP(=O)(O)OC[C@H]1O[C@@H](n2cnc3c(N)ncnc32)[C@H](O)[C@@H]1O)[C@@H](O)C(=O)NCCC(=O)NCCSSCCNC(=O)CCNC(=O)[C@H](O)C(C)(C)COP(=O)(O)OP(=O)(O)OC[C@H]1O[C@@H](n2cnc3c(N)ncnc32)[C@H](O)[C@@H]1O` [3'-dephospho-CoA disulfide]: in series [1], the “change in kcat as compared to CoA disulfide” value is “no detectable change” and the “increase in Km as compared to CoA disulfide” value is 10 fold.
Regarding `CC(C)(COP(=O)(O)O)[C@@H](O)C(=O)NCCC(=O)NCCSSCCNC(=O)CCNC(=O)[C@H](O)C(C)(C)COP(=O)(O)O` [4,4'-diphospho-pantethine], in series [1], the “kcat lower than for 3'-dephospho-CoA disulfide” value is reported as 2-3 fold.
Consider `CC(C)(COP(=O)(O)OP(=O)(O)OC[C@H]1O[C@@H](n2cnc3c(N)ncnc32)[C@H](O)[C@@H]1OP(=O)(O)O)[C@@H](O)C(=O)NCCC(=O)NCCS` [CoA, Coenzyme A], for which, in series [2], the “stability to heavy metal-catalyzed auto-oxidation” value is reported as “slightly more stable than glutathione”.
`N[C@@H](CCC(=O)N[C@@H](CS)C(=O)NCC(=O)O)C(=O)O` [GSH, g-glutamyl-cysteinyl-glycine]: in series [3], the “stability to copper-catalyzed autooxidation” value was “much more stable than cysteine”.
Consider `NC(=O)C1=CN([C@@H]2O[C@H](COP(=O)(O)OP(=O)(O)OC[C@H]3O[C@@H](n4cnc5c(N)ncnc54)[C@H](O)[C@@H]3O)[C@@H](O)[C@H]2O)C=CC1` [NADH], for which the “use in the CoA disulfide dependent reduction of DTNB” value in series [4] is on record as “cannot be used”.
On to `N[C@@H](CSSC[C@H](N)C(=O)O)C(=O)O` [cystine], for which the “turnover / activity with CoADR” value in series [1] is “No activity could be detected”. The “function in the NADPH-dependent reduction of DTNB” value in [4] is listed as “did not function”.
`CC(C)(CO)[C@@H](O)C(=O)NCCC(=O)NCCSSCCNC(=O)CCNC(=O)[C@H](O)C(C)(C)CO` [pantethine]: the “turnover / activity with CoADR” value in [1] is reported as “not turned over”. In [4], the “function in the NADPH-dependent reduction of DTNB” value is listed as “did not function”.
On to “S. aureus coenzyme A disulfide reductase (Staphylococcus aureus subsp. aureus NCTC 8325)”, for which the Km in [5] is 80 µM; in series [6] (setting [11]), 1.6 µM; in series [6] (other: at saturating CoA disulfide, 37.0 °C), 2 µM; in series [7], 140 µM; in [8] it was 1100 µM; in series [9] it was 11 µM. In series [6] (setting [11]), the kcat is 17 ± 1 s⁻¹.

B1: Coenzyme A disulfide reductase (CoADR) from Staphylococcus aureus (enzyme)
chain: PKIVVVGAVAGGATCASQIRRLDKESDIIIFEKDRDMSFANCALPYVIGEVVEDRRYALAYTPEKFYDRKQITVKTYHEVIAINDERQTVSVLNRKTNEQFEESYDKLILSPGASANSLGFESDITFTLRNLEDTDAIDQFIKANQVDKVLVVGAGYVSLEVLENLNERGLHPTLINRSDKINKLMDADMNQPILDELDKREIPYRLNEEINAINGNEITFKSGKVEHYDMIIEGVGTHPNSKFIESSNIKLDRKGFIPVNDKFETNVPNIYAIGDIATSHYRHVDLPASVPLAWGAHRAASIVAEQIAGNDTIEFKGFLGNNIVKFFDYTFASVGVKPNELKQFDYKMVEVTQGAHANYYPGNSPLHLRVYYDTSNRQILRAAAVGKEGADKRIDVLSMAMMNQLTVDELTEFEVAYAPPYSHPKDLINMIGYKAK
Consider B1, for which the binding result in series [10] is reported as “binds”.
